Results reported in US20170131257A1, “SYSTEMS AND METHODS OF REMOVING AND MANAGING HEAVY METALS” (priority 2007, published 2017).

How the values were obtained:
[1] = tested on: Zebra Fish; format: in vivo
Procedure: Following EPA Method 7473, a total of 44 Zebra fish were randomized into four one gallon tanks and fed an experimental or control diet for 6 days. On the seventh day the fish were not fed so that any food being digested would have been absorbed or eliminated. The fish were fed 1.0 gram of food twice a day the first day. On the second day the fish were fed 0.5 grams twice a day. On days 3-6 the fish were fed 0.5 gram once a day.
The control and experimental feed was prepared using:
9.8 g. Frozen Thawed Brine Shrimp
The corn starch and water were boiled for 2 minutes then mixed with the remaining ingredients. The basic food was divided into four groups. The study groups consisted of: the control (Group C), an experimental group in which phytic acid di-sodium salt was added to the feed at 5% by […] (Group A), an experimental group in which 15 μg mercuric iodide salt per gram of food was added (Group B), and lastly Group D in which fish were fed the above stated amounts of mercuric iodide salt and phytic acid di-sodium salt.
The analysis was conducted by a contracted company, Northwest Pacific Labs. Samples were stratified by treatment and randomly sampled. A test of atomic absorption was used to determine absorbed mercury, after calibrating the instrument.

[2] = Chelation between mercury and phytic acid at different pH levels; details: pH levels including acidic levels commonly found in the stomach
Text: An amount of food 72 that may contain a concentration of the heavy metal (“contaminated food”) is consumed with an amount of the ligand 74, or, near the time of consuming the ligand 74. In one implementation, the ligand 74 is phytic acid. The ligand 74 is preferably in an amount suitable for at least substantially bonding to the mercury contained within the food 72. The ligand 74 may be prepared in the form of a marinade or sauce directly applied to the food 72, or may be a separate supplement such as a pill, alternate food source, or the like. Ingestion 76 may provide mixing of the food 72 and ligand 74. When the food 72 and ligand 74 are mixed, then chelation 78 causes the mercury or other heavy metal in the food 72 to bond to the ligand 74, thereby forming a chelate 82. The chelate 82 causes food 72 containing some mercury to become a clean food 80, substantially free of the mercury. The clean food 80 proceeds to normal digestion 84, while the chelate 82 proceeds to safe egestion 86 from the body. Thus, the mercury contained within food 72 is passed through the living organism without digestion 84.

[3] = Mercury binding test of substrates in a salt solution

In the case of `O=P(O)(O)O[C@H]1[C@H](OP(=O)(O)O)[C@@H](OP(=O)(O)O)[C@H](OP(=O)(O)O)[C@@H](OP(=O)(O)O)[C@H]1OP(=O)(O)O` [Phytic Acid, phytic acid], the “reduction of mercury absorption” value ([1]; Group D (phytic acid plus mercury) vs mercury alone, baselines of mercury controlled for, seven day time frame) is reported as 50%, the “Total Hg Wet Weight, Mean” value ([1]; Group D: phytic acid 5% per wt. and 15 micrograms HgI2 per gram food, fed 6 days, N=4) is reported as “.1047” and the “absorbed mercury, group D vs mercury-alone group B” value ([1]; weighted sample, Mann-Whitney test, Sig=0.000) is reported as “less absorbed mercury”. The “chelation with mercury across pH” value [2] was “can occur at a wide range of pH levels” and the “binding of mercury by the substrate” value [3] was “would bind mercury”.
